# From US20250051391A1, “PEPTIDE INHIBITORS AND METHODS FOR INHIBITING PROTEIN AGGREGATION IN NEURONS AND NEURODEGENERATIVE DISEASES” (THE GOVERNING COUNCIL OF THE UNIVERSITY OF TORONTO, priority 2021, published 2025)
# Ends that are not written are not given here.
# Legend:
# [1] = tested on: A53T a-syn iPSC-derived dopaminergic neurons; experiment: Human iPSC-derived dopaminergic neurons with A53T a-syn mutation; assay type: cell-based; conditions: A53T a-syn iPSC-derived dopaminergic neurons vs isogenic controls
# Method: iCell Dopa neurons (A53T a-syn mutant and isogenic control) were purchased from Fujifilm Cellular Dynamics (Madison, WI, USA) and cultured as per manufacturer's instructions. Briefly, cells were plated in complete maintenance medium provided by the manufacturer on poly-L-ornithine/laminin coated plates (ibidi). Cells recovered from thawing for 24 h and then were transduced with AAV-Scramble1.3-RFP or AAV-Pdpep1.3-RFP for 48 h at which time media was completely changed. Cells were fixed using 4% PFA at 7 days post-plating.
# After fixation, cells were permeabilized with 0.2% Triton X-100 for 15 min, washed 3 times with PBS and then incubated with blocking solution (1% BSA, 22.52 mg/mL glycine, 0.1% Tween-20 in PBS) for 1 h. […] Following another 3 PBS washes, nuclei were counterstained with DAPI (ThermoFisher) and then coverslips were mounted on slides using fluorescence mounting medium (DAKO) and sealed using clear nail varnish.
# Confocal images of primary cortical neurons, dopaminergic neurons, and LAMP1 staining within the SN were processed using Imaris software (Oxford instruments). Z stacks were projected to give a 3D reconstruction of the field of view and mean pixel intensity per GFP^+ cell (or RFP^+ cell for V1S/SV2 experiments) was calculated for a-syn or LAMP1 signal using the software's surfaces module. […]
# [2] = tested on: rat substantia nigra dopaminergic neurons; experiment: AAV V1S/SV2 a-syn oligomer rat model; assay type: in vivo
# Method: Adult female Sprague-Dawley rats (250-280 g; Envigo) were pair-housed in cages with wood bedding and had access to food and water ad libitum. The animal colony was maintained in a regular 12-h light/dark cycle. All procedures were approved by the University Health Network Animal Care Committee in accordance with guidelines and regulations set by the Canadian Council on Animal Care.
# Animals were secured in a stereotactic frame under isoflurane/oxygen anaesthesia and ketoprofen (5 mg/kg) analgesia. The surgical site was shaved and sterilized with iodine/betadine prior to making a 2 cm incision along the midline. The scalp was exposed and a unilateral injection targeting the SN was performed at coordinates AP−5.2 mm, ML−2 mm and DV−7.4 mm with respect to the bregma as a point of reference. For each animal, a total volume of 2 μl of virus was injected at a rate of 0.5 μl/min using a microinjection pump and 10 μl Hamilton syringe with a 26-gauge needle. For A53T groups, 1 μl (low dose) or 1.34 μl (high dose) of AAV1/2-A53T a-syn (5.1×10^12 genomic particles/ml), 0.14 μl of AAV1/2-Pdpep1.3-GFP or scramble1.3-GFP (5.1×10^12 genomic particles/ml) and 0.86 μl or 0.52 μl of sterile PBS was injected; for EV groups, 1 μl (low dose) or 1.34 μl (high dose) of AAV1/2-EV (5.1×10^12 genomic particles/ml) replaced AAV1/2-A53T. For V1S+SV2 groups, 0.58 μl of AAV1/2-V1S (1.1×10^12 genomic particles/ml), 0.58 μl of AAV1/2-SV2 (1.1×10^12 genomic particles/ml), 0.14 μl of AAV1/2-Pdpep1.3-RFP or scramble1.3-RFP (5.1×10^12 genomic particles/ml) and 0.7 μl of sterile PBS was injected; for the YFP groups, 1.16 μl of AAV1/2-YFP (1.1×10^12 genomic particles/ml), 0.14 μl of AAV1/2-Pdpep1.3-RFP or scramble1.3-RFP (5.1×10^12 genomic particles/ml) and 0.7 μl of sterile PBS was injected. At the end of virus injection, the needle remained in place for 5 minutes before gradual removal.
# Animals were uthanized by transcardial perfusion with heparinised saline under isoflurane/oxygen anaesthesia. Brains were then removed and the ventral part, including the ventral striatum, was snap frozen in liquid dry ice-cooled isopentane. […]
# Immunofluorescence staining for a-syn, tyrosine hydroxylase and LAMP1 was performed by washing free-floating sections with PBS-T (0.2% Triton X-100) three times for 10 min each at room temperature. […] Sections were then mounted onto glass slides and allowed to dry and then fluorescence mounting medium (DAKO) was applied followed by cover slips.
# Confocal images of immunofluorescent staining were acquired with a Zeiss LSM880 confocal microscope equipped with 405, 488, 555, and 639 nm laser lines. All images were taken within the linear range at constant gain and pinhole settings at optimal resolution settings determined by the software. […]
sequence,measurement,setting,value
DEEIERQLKALG [PDpep1.3],LAMP1 levels,[1],returned both a-syn and LAMP1 levels to those of controls
same,a-syn levels,[1],returned both a-syn and LAMP1 levels to those of controls
same,surviving dopaminergic neurons in the SN and terminals in the striatum (TH),[2]; 6 weeks post-injection,increase in surviving dopaminergic neurons
same,total a-syn positive area in the SN,[2]; 6 weeks post-injection,decrease
same,a-syn oligomer levels measured by YFP positive area in SN and striatum,"[2]; 6 weeks post-injection, vs Scramble1.3",significant reduction
same,YFP mean fluorescence intensity in SN cells positive for TH and RFP,"[2]; rats, V1S/SV2, 6 weeks post-injection, AAV-expressed RFP peptide",0.063±0.0167 RFU
